Assay results: patent US9994528B2, “Certain amino-pyridines and amino-triazines, compositions thereof, and methods for their use” (Cytokinetics, Inc., priority 2010, dated 2018)

Test system: rabbit skeletal myofibrils (approximately 90% fast fibers)
Assay: Activation of fast skeletal myofibrils (PUMA coupled-enzyme ATPase assay)
Format: biochemical
Details: AC1.4 = concentration at which the compound increased the enzymatic activity by 40%; myofibril suspension at calcium level pCa25; PM12 buffer pH 6.8
Description: Preparation of fast skeletal myofibrils. Rabbit skeletal myofibrils were prepared based upon the method of Herrmann et al. (Biochem. 32(28):7255-7263(1993). Myofibrils were prepared from rabbit psoas muscle purchased from Pel-Freez Biologicals (Arkansas) within 2 days of ordering, stored on ice. Minced muscle was homogenized in 10 volumes of ice-cold “standard” buffer (50 mM Tris, pH 7.4, 0.1 M potassium acetate, 5 mM KCl, 2 mM DTT, 0.2 mM PMSF, 10 μM leupeptin, 5 μM pepstatin, and 0.5 mM sodium azide) containing 5 mM EDTA and 0.5% Triton X-100 using an Omni-Macro homogenizer. Myofibrils were recovered by low speed centrifugation (3000 rpm for 10 minutes) and washed 2 times in the Triton X-100 containing buffer to ensure removal of cellular membrane. Following the Triton washes, myofibrils were washed 3 times in “standard” buffer containing 2 mM magnesium acetate. A final wash in assay buffer (12 mM PIPES, pH 6.8, 60 mM KCl, 1 mM DTT) was performed and brought to 10% sucrose for flash freezing in liquid nitrogen and storage at −80° C.
Activation of Fast Skeletal Myofibrils. Fast fiber activators were identified by measuring the enzymatic activity of muscle myofibril preparations using the proprietary PUMA™ (see, e.g., U.S. Pat. Nos. 6,410,254, 6,743,599, 7,202,051, and 7,378,254) assay system. Myofibril preparations consisted of rabbit skeletal muscle (approximately 90% fast fibers) that had been mechanically homogenized and washed with a detergent (triton X-100) to remove cellular membranes. This preparation retained all of the sarcomeric components in a native conformation and the enzymatic activity was still regulated by calcium. Compounds were tested using a myofibril suspension and a level of calcium sufficient to increase enzymatic activity of the myofibrils to 25% of their maximal rate (termed pCa25). Enzymatic activity was tracked via a pyruvate kinase and lactate dehydrogenase-coupled enzyme system. This assay regenerates myosin-produced ADP into ATP by oxidizing NADH, producing an absorbance change at 340 nm. The buffering system was 12 mM Pipes, 2 mM MgCl2, 1 mM DTT at pH 6.8 (PM12 buffer).
Using procedures similar to those described herein, utilizing reagents and intermediates commercially available (e.g., Sigma-Aldrich,) or readily synthesized by one of skill in the art, the compounds in Table 2 were synthesized, characterized and tested. AC1.4 values were determined according to the procedure described in Example 25, and the reported median AC1.4 values are as follows: A=<1 uM; B=1-10 uM; C=10-20 uM; D=>20 uM.

Row | Structure (SMILES) | Mean AC1.4
1 | CC(C)(CNc1ccc2cc(C(N)=O)ccc2n1)c1ccc(F)cc1 [2-{[2-(4-fluorophenyl)-2-methylpropyl]amino}quinoline-6-carboxamide] | B (B=1-10 uM)
2 | CC(C)(Nc1ncc(-n2cc(C(N)=O)cn2)nn1)c1cccc(OC(F)F)n1 [1-[3-({1-[6-(difluoromethoxy)(2-pyridyl)]-isopropyl}amino)-1,2,4-triazin-6-yl]pyrazole-4-carboxamide] | B (B=1-10 uM)
3 | CC(C)(Nc1ncc(-c2cc(C#N)ccc2F)nn1)c1cccc(C(F)F)n1 [3-[3-({1-[6-(difluoromethyl)(2-pyridyl)]-isopropyl}amino)(1,2,4-triazin-6-yl)]-4-fluorobenzenecarbonitrile] | B (B=1-10 uM)
4 | NC(=O)c1cccc(-c2cnc(NC[C@]3(c4ncccc4Cl)C[C@H](F)C3)nn2)c1 [3-[3-({[1-(3-chloro(2-pyridyl))-3-fluorocyclobutyl]methyl}amino)-1,2,4-triazin-6-yl]benzamide] | A (A=<1 uM)
5 | CC(C)(Nc1ncc(-c2cc(N)ccc2F)nn1)c1ncccc1F [[6-(3-amino-6-fluorophenyl)(1,2,4-triazin-3-yl)][1-(3-fluoro(2-pyridyl))-isopropyl]amine] | B (B=1-10 uM)
6 | CNC(=O)c1cccc(-c2cnc(NC[C@]3(c4ncccc4Cl)C[C@H](F)C3)nn2)c1 [{3-[3-({[1-(3-chloro(2-pyridyl))-3-fluorocyclobutyl]methyl}amino)(1,2,4-triazin-6-yl)]phenyl}-N-methylcarboxamide] | B (B=1-10 uM)
7 | Cc1cccc(C(C)(C)Nc2ncc(-c3cc(C(N)=O)ccc3F)nn2)n1 [4-fluoro-3-(3-{[1-methyl-1-(6-methyl(2-pyridyl))ethyl]amino}(1,2,4-triazin-6-yl))benzamide] | C (C=10-20 uM)
8 | CNC(=O)c1ccc(F)c(-c2cnc(NCC3(c4ncccc4Cl)CC(F)(F)C3)nn2)c1 [{3-[3-({[1-(3-chloro(2-pyridyl))-3,3-difluorocyclobulyl]methyl}amino)(1,2,4-triazin-6-yl)]-4-fluorophenyl}-N-methylcarboxamide] | B (B=1-10 uM)
9 | CC(C)(Nc1ncc(-n2cc(C(N)=O)cn2)nn1)c1ncccc1F [1-(3-{[1-(3-fluoro(2-pyridyl))-isopropyl]amino}-1,2,4-triazin-6-yl)pyrazole-4-carboxamide] | D (D=>20 uM)
10 | CC(C)(CNc1ncc(-c2cccc(C(N)=O)c2)nn1)c1ccc(F)cc1 [3-(3-{[2-(4-fluorophenyl)-2-methylpropyl]amino}-1,2,4-triazin-6-yl)benzamide] | B (B=1-10 uM)
11 | CC(C)(C)Nc1ncc(-c2cc(C(N)=O)ccc2F)nn1 [3-{3-[(tert-butyl)amino](1,2(4-triazin-6-yl)}-4-fluorobenzamide] | D (D=>20 uM)
12 | CC(C)(Nc1ncc(-c2cc(C(=O)NC[C@H](O)CO)ccc2F)nn1)c1ncccc1F [N-((2S)-2,3-dihydroxypropyl)[4-fluoro-3-(3-{[1-(3-fluoro(2-pyridyl))-isopropyl]amino}(1,2,4-triazin-6-yl))phenyl]carboxamide] | C (C=10-20 uM)
13 | NC(=O)c1ccc(F)c(-c2cnc(NCC3(c4ncccc4Cl)CCC3)nn2)c1 [3-[3-({[(3-chloro(2-pyridyl))cyclobutyl]methyl}amino)(1,2,4-triazin-6-yl)]-4-fluorobenzamide] | A (A=<1 uM)
14 | CC(C)(CNc1ncc(-c2cc(C(N)=O)ccc2F)nn1)c1ncccc1Cl [3-(3-{[2-(3-chloro(2-pyridyl))-2-methylpropyl]amino}(1,2,4-triazin-6-yl))-4-fluorobenzamide] | B (B=1-10 uM)
15 | CC(C)(Nc1ncc(-c2cc(C(=O)O)ccc2F)nn1)c1ncccc1F [4-fluoro-3-(3-{[1-(3-fluoro(2-pyridyl))-isopropyl]amino}(1,2,4-triazin-6-yl))benzoic acid] | C (C=10-20 uM)
16 | NC(=O)c1ccc(F)c(-c2cnc(NCc3cccc(OC(F)F)n3)nn2)c1 [3-[3-({[6-(difluoromethoxy)(2-pyridyl)]methyl}amino)(1,2,4-triazin-6-yl)]-4-fluorobenzamide] | D (D=>20 uM)
17 | CC(C)(CNc1ncc(-c2cc(C(=O)O)ccc2F)nn1)c1ncccc1Cl [3-(3-{[2-(3-chloro(2-pyridyl))-2-methylpropyl]amino}(1,2,4-triazin-6-yl))-4-fluorobenzoic acid] | B (B=1-10 uM)

Row | Structure (SMILES) | Mean AC1.4
18 | Cc1nc(C(C)(C)Nc2ncc(-c3cc(C(N)=O)ccc3F)nn2)ccc1F [4-fluoro-3-(3-{[1-(5-fluoro-6-methyl(2-pyridyl))-isopropyl]amino}(1,2,4-triazin-6-yl))benzamide] | B (B=1-10 uM)
19 | CC(C)(Nc1ncc(-c2cc(C(N)=O)ccc2F)nn1)c1cccc(C(F)F)n1 [3-[3-({1-[6-(difluoromethyl)(2-pyridyl)]-isopropyl}amino)(1,2,4-triazin-6-yl)]-4-fluorobenzamide] | B (B=1-10 uM)
20 | NC(=O)c1cccc(-c2cnc(NCC3(c4ncccc4F)CCC3)nn2)c1 [3-[3-({[(3-fluoro-2-pyridyl)cyclobutyl]methyl}amino)-1,2,4-triazin-6-yl]benzamide] | B (B=1-10 uM)
21 | N#Cc1cc(-c2cnc(NCC3(c4ncccc4F)CCC3)nn2)ccc1F [2-fluoro-5-[3-({[(3-fluoro(2-pyridyl))cyclobutyl]methyl}amino)(1,2,4-triazin-6-yl)]benzenecarbonitrile] | C (C=10-20 uM)
22 | NC(=O)c1ccc(F)c(-c2cnc(NC3(c4cccc(OC(F)F)n4)CCC3)nn2)c1 [3-[3-({[6-(difluoromethoxy)(2-pyridyl)]cyclobulyl}amino)(1,2,4-triazin-6-yl)]-4-fluorobenzamide] | A (A=<1 uM)
23 | CC(C)(Nc1ncc(-c2cc(CN)ccc2F)nn1)c1ncccc1F [{6-[5-(aminomethyl-2-fluorophenyl](1,2,4-triazin-3-yl)}[1-(3-fluoro(2-pyridyl))-isopropyl]amine] | D (D=>20 uM)
24 | NC(=O)c1cccc(-c2ccc(NC(=O)Cc3ccc(F)cc3)nc2)c1 [3-{6-[2-(4-fluorophenyl)acetylamino]-3-pyridyl}benzamide] | D (D=>20 uM)
25 | CC(C)(CNc1ccc(CCNS(C)(=O)=O)cn1)c1ccc(F)cc1 [[2-(6-{[2-(4-fluorophenyl)-2-methylpropyl]amino}(3-pyridyl))ethyl](methylsulfonyl)amine] | D (D=>20 uM)
26 | NC(=O)c1cccc(-c2ccc(NCCc3ccc(F)cc3)nc2)c1 [3-(6-{[2-(4-fluorophenyl)ethyl]amino}-3-pyridyl)benzamide] | D (D=>20 uM)
27 | CC(C)(Nc1ncc(-c2cc(C(N)=O)ccc2F)nn1)c1ncccc1Cl [3-(3-{[1-(3-chloro(2-pyridyl))-isopropyl]amino}(1,2,4-triazin-6-yl))-4-fluorobenzamide] | B (B=1-10 uM)
28 | CC(C)(Nc1ncc(-c2cc(CO)ccc2F)nn1)c1ncccc1F [[4-fluoro-3-(3-{[1-(3-fluoro(2-pyridyl))-isopropyl]amino}(1,2,4-triazin-6-yl))phenyl]methan-1-ol] | C (C=10-20 uM)
29 | CC(C)(CNc1cccc(-c2ccc(F)cc2)n1)c1ccc(F)cc1 [[6-(4-fluorophenyl)(2-pyridyl)][2-(4-fluorophenyl)-2-methylpropyl]amine] | D (D=>20 uM)
30 | CC(C)(Nc1ncc(-c2cc(C#N)ccc2F)nn1)c1ncccc1C(F)F [3-[3-({1-[3-(difluoromethyl)(2-pyridyl)]-isopropyl}amino)(1,2,4-triazin-6-yl)]-4-fluorobenzenecarbonitrile] | D (D=>20 uM)
31 | NC(=O)c1ccc(F)c(-c2cnc(NC[C@]3(c4ncccc4Cl)C[C@H](F)C3)nn2)c1 [3-[3-({[1-(3-chloro(2-pyridyl))-3-fluorocyclobutyl]methyl}amino)(1,2,4-triazin-6-yl)]-4-fluorobenzamide] | A (A=<1 uM)
32 | c1ccc(-c2ccnc(NC3(c4ccccc4)CCC3)c2)cc1 [(4-phenyl(2-pyridyl))(phenylcyclobutyl)amine] | C (C=10-20 uM)
33 | COC(=O)c1ccc(F)c(-c2cnc(NCC3(c4ncccc4Cl)CCC3)nn2)c1 [methyl 3-[3-({[(3-chloro(2-pyridyl))cyclobutyl]methyl}amino)(1,2,4-triazin-6-yl)]-4-fluorobenzoate] | B (B=1-10 uM)
34 | NC(=O)c1cccc(-c2cnc(NC[C@]3(c4ncccc4F)C[C@H](F)C3)c(F)c2)c1 [3-[5-fluoro-6-({[3-fluoro-1-(3-fluoro(2-pyridyl))cyclobutyl]methyl}amino)-3-pyridyl]benzamide] | B (B=1-10 uM)
